For this assay, the target named is PD-L1 His protein / PD-1 Fc protein (Homo sapiens, UniProt Q9NZQ7). The assay can be described thus: HTRF Assay (PD-1/PD-L1 interaction). The assay is classed as binding. Particulars: PD-L1 His 6 nM, PD-1 Fc 6 nM. In short, it runs like this: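 Compounds tested from 20 μM down to 0.001 μM (3-fold) against 6 nM PD-L1 His and 6 nM PD-1 Fc, 15 min room temperature incubation. Detection after 1 h at room temperature with Tb cryptate anti-6HIS and XL665 anti-human IgG reagents (mixture at 0.35 nM and 6.7 nM), HTRF signal.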
PD-L1 His protein / PD-1 Fc protein, sequence (Q9NZQ7 19-238 limits assumed): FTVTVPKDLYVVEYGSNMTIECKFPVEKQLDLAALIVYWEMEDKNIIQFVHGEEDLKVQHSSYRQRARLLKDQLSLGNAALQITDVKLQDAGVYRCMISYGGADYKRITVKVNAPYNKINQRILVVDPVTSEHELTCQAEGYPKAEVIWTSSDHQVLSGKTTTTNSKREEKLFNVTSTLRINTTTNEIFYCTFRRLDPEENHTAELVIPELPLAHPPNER

For orientation: IC50 means the concentration at which inhibition is half-maximal. Higher therefore signals a need for much substance.

With `O=C1CC[C@@H](CNCc2cnc3cc(-c4cccc(-c5cccc(-c6ccc7c(n6)OCCNC7)c5Cl)c4Cl)ccn3c2=O)N1` [Example 261, (S)-8-(2,2′-Dichloro-3′-(2,3,4,5-tetrahydropyrido[3,2-f][1,4]oxazepin-8-yl)-[1,1′-biphenyl]-3-yl)-3-((((5-oxopyrrolidin-2-yl)methyl)amino)methyl)-4H-pyrido[1,2-a]pyrimidin-4-one], the IC50 is 250 nM. That is a sub-micromolar value. In the case of `COc1nc(-c2cccc(-c3cccc(-c4ccn5c(=O)c(CNC[C@H](C)O)c(OC)nc5c4)c3Cl)c2Cl)ccc1CNC[C@@H]1CCC(=O)N1` [Example 262] it was 6.1 nM. `CNC(=O)[C@H](C)N(C)Cc1cnc2cc(-c3cccc(-c4cccc(-c5ccc(CNC[C@@H]6CCC(=O)N6)c(OC)n5)c4Cl)c3Cl)ccn2c1=O` [Example 263, (S)-2-(((8-(2,2′-dichloro-3′-(6-methoxy-5-(((((S)-5-oxopyrrolidin-2-yl)methyl)amino)methyl)pyridin-2-yl)-[1,1′-biphenyl]-3-yl)-4-oxo-4H-pyrido[1,2-a]pyrimidin-3-yl)methyl)(methyl)amino)-N-methylpropanamide]: 0.6 nM corresponded to half-maximal inhibition (IC50). The molecule `COc1nc(-c2cccc(-c3cccc(-c4ccn5c(=O)c(CNCCN6CCNC(=O)C6)cnc5c4)c3Cl)c2Cl)ccc1CNC[C@@H]1CCC(=O)N1` [Example 264, (S)-8-(2,2′-dichloro-3′-(6-methoxy-5-((((5-oxopyrrolidin-2-yl)methyl)-amino)-methyl)-pyridin-2-yl)-[1,1′-biphenyl]-3-yl)-3-(((2-(3-oxopiperazin-1-yl)ethyl)amino)methyl)-4H-pyrido[1,2-a]pyrimidin-4-one] showed an IC50 of 0.1 nM. In the case of `COC(=O)[C@H]1CCN(Cc2c(C)nc3cc(-c4cccc(-c5cccc(-c6ccc(CNC[C@@H]7CCC(=O)N7)c(OC)n6)c5Cl)c4Cl)ccn3c2=O)C1` [Example 265, (S)-Methyl 1-((8-(2,2′-dichloro-3′-(6-methoxy-5-(((((S)-5-oxopyrrolidin-2-yl)methyl)amino)methyl)pyridin-2-yl)-[1,1′-biphenyl]-3-yl)-2-methyl-4-oxo-4H-pyrido[1,2-a]pyrimidin-3-yl)methyl)pyrrolidine-3-carboxylate] it was 0.7 nM; in that of `COc1nc(-c2cccc(-c3cccc(-c4ccn5c(=O)c(CNCCN6CCS(=O)(=O)CC6)cnc5c4)c3Cl)c2Cl)ccc1CNC[C@@H]1CCC(=O)N1` [Example 266, (S)-8-(2,2′-dichloro-3′-(6-methoxy-5-((((5-oxopyrrolidin-2-yl)methyl)-amino)methyl)-pyridin-2-yl)-[1,1′-biphenyl]-3-yl)-3-(((2-(1,1-dioxidothiomorpholino)-ethyl)-amino)-methyl)-4H-pyrido[1,2-a]pyrimidin-4-one], 17.2 nM.

The molecule `COc1nc(-c2cccc(-c3cccc(-c4ccc5c(n4)OCCN(CCO)C5)c3Cl)c2Cl)ccc1CNC[C@@H]1CCC(=O)N1` [Example 267, (S)-5-((((6-(2,2′-Dichloro-3′-(4-(2-hydroxyethyl)-2,3,4,5-tetrahydropyrido[3,2-f][1,4]oxazepin-8-yl)-[1,1′-biphenyl]-3-yl)-2-methoxypyridin-3-yl)methyl)amino)methyl)pyrrolidin-2-one] gave an IC50 of 0.2 nM. The value for `O=C1CC[C@@H](CNCc2cnc3cc(-c4cccc(-c5cccc(-c6ccc7c(n6)OCCN(CCO)C7)c5Cl)c4Cl)ccn3c2=O)N1` [Example 268, (S)-8-(2,2′-Dichloro-3′-(4-(2-hydroxyethyl)-2,3,4,5-tetrahydropyrido[3,2-f][1,4]oxazepin-8-yl)-[1,1′-biphenyl]-3-yl)-3-((((5-oxopyrrolidin-2-yl)methyl)amino)methyl)-4H-pyrido[1,2-a]pyrimidin-4-one] was 710 nM; that for `COC(=O)CNCc1c(C)nc2cc(-c3cccc(-c4cccc(-c5ccc(CNC[C@@H]6CCC(=O)N6)c(OC)n5)c4Cl)c3Cl)ccn2c1=O` [Example 269, (S)-Methyl 2-(((8-(2,2′-dichloro-3′-(6-methoxy-5-((((5-oxopyrrolidin-2-yl)methyl)amino)methyl)pyridin-2-yl)-[1,1′-biphenyl]-3-yl)-2-methyl-4-oxo-4H-pyrido[1,2-a]pyrimidin-3-yl)methyl)amino)acetate] was 1 nM; that for `COc1nc(-c2cccc(-c3cccc(-c4ccn5c(=O)c(CNC[C@@H](O)CC(=O)O)cnc5c4)c3Cl)c2Cl)cc(F)c1CNC[C@@H]1CCC(=O)N1` [Example 270, (3S)-4-[[8-[2-Chloro-3-[2-chloro-3-[4-fluoro-6-methoxy-5-[[[(2S)-5-oxopyrrolidin-2-yl]methylamino]methyl]-2-pyridyl]phenyl]phenyl]-4-oxo-pyrido[1,2-a]pyrimidin-3-yl]methylamino]-3-hydroxy-butanoic acid] was 0.1 nM. The value for `COC(=O)C[C@H](O)CNCc1cnc2cc(-c3cccc(-c4cccc(-c5cc(F)c(CNC[C@@H]6CCC(=O)N6)c(OC)n5)c4Cl)c3Cl)ccn2c1=O` [Example 271, Methyl (3S)-4-[[8-[2-chloro-3-[2-chloro-3-[4-fluoro-6-methoxy-5-[[[(2S)-5-oxopyrrolidin-2-yl]methylamino]methyl]-2-pyridyl]phenyl]phenyl]-4-oxo-pyrido[1,2-a]pyrimidin-3-yl]methylamino]-3-hydroxy-butanoate] was 0.1 nM; that for `COc1nc(-c2cccc(-c3cccc(-c4ccn5c(=O)c(CNC[C@H](C)O)cnc5c4)c3Cl)c2Cl)cc(F)c1CNC[C@@H]1CCC(=O)N1` [Example 272, 8-[2-Chloro-3-[2-chloro-3-[4-fluoro-6-methoxy-5-[[[(2S)-5-oxopyrrolidin-2-yl]methylamino]methyl]-2-pyridyl]phenyl]phenyl]-3-[[[(2S)-2-hydroxypropyl]amino]methyl]pyrido[1,2-a]pyrimidin-4-one] was 0.2 nM; that for `COc1nc(-c2cccc(-c3cccc(-c4ccn5c(=O)c(CNCC(C)(C)CO)cnc5c4)c3Cl)c2Cl)ccc1CNC[C@@H]1CCC(=O)N1` [Example 273, (S)-8-(2,2′-dichloro-3′-(6-methoxy-5-((((5-oxopyrrolidin-2-yl)methyl)amino)methyl)pyridin-2-yl)-[1,1′-biphenyl]-3-yl)-3-(((3-hydroxy-2,2-dimethylpropyl)amino)methyl)-4H-pyrido[1,2-a]pyrimidin-4-one] was 4.2 nM. In turn, `COc1nc(-c2cccc(-c3cccc(-c4ccn5c(=O)c(CNC[C@@H](O)CC(N)=O)cnc5c4)c3Cl)c2Cl)cc(F)c1CNC[C@@H]1CCC(=O)N1` [Example 275, (3S)-4-[[8-[2-Chloro-3-[2-chloro-3-[4-fluoro-6-methoxy-5-[[[(2S)-5-oxopyrrolidin-2-yl]methylamino]methyl]-2-pyridyl]phenyl]phenyl]-4-oxo-pyrido[1,2-a]pyrimidin-3-yl]methylamino]-3-hydroxy-butanamide] yielded an IC50 of 0.1 nM. This IC50 is about 42-fold lower than that of the molecule before. The value for `CNCCCN(C)Cc1ccc(-c2cccc(-c3cccc(-c4ccn5c(=O)c(CN(C)CCNC)cnc5c4)c3Cl)c2Cl)nc1OC` [Example 276, 8-(2,2′-dichloro-3′-(6-methoxy-5-((methyl(3-(methylamino)propyl)amino)methyl)pyridin-2-yl)-[1,1′-biphenyl]-3-yl)-3-((methyl(2-(methylamino)ethyl)amino)methyl)-4H-pyrido[1,2-a]pyrimidin-4-one] was 90 nM; that for `COc1nc(-c2cccc(-c3cccc(-c4ccn5c(=O)c(CN(C)CCNC(=O)OC(C)(C)C)cnc5c4)c3Cl)c2Cl)ccc1CN(C)CCNC(=O)OC(C)(C)C` [Example 277, tert-butyl (2-(((6-(3′-(3-(((2-((tert-butoxycarbonyl)amino)ethyl)(methyl)amino)methyl)-4-oxo-4H-pyrido[1,2-a]pyrimidin-8-yl)-2,2′-dichloro-[1,1′-biphenyl]-3-yl)-2-methoxypyridin-3-yl)methyl)(methyl)amino)ethyl)carbamate] was 200 nM. The value for `CNCCN(C)Cc1cnc2cc(-c3cccc(-c4cccc(-c5ccc(CNC[C@@H]6CCC(=O)N6)c(OC)n5)c4Cl)c3Cl)ccn2c1=O` [Example 278, (S)-8-(2,2′-dichloro-3′-(6-methoxy-5-((((5-oxopyrrolidin-2-yl)methyl)amino)methyl)pyridin-2-yl)-[1,1′-biphenyl]-3-yl)-3-((methyl(2-(methylamino)ethyl)amino)methyl)-4H-pyrido[1,2-a]pyrimidin-4-one] was 0.1 nM; that for `COc1nc(-c2cccc(-c3cccc(-c4ccn5c(=O)c(CN(C)CCN)cnc5c4)c3Cl)c2Cl)ccc1CNC[C@@H]1CCC(=O)N1` [Example 279, (S)-3-(((2-aminoethyl)(methyl)amino)methyl)-8-(2,2′-dichloro-3′-(6-methoxy-5-((((5-oxopyrrolidin-2-yl)methyl)amino)methyl)pyridin-2-yl)-[1,1′-biphenyl]-3-yl)-4H-pyrido[1,2-a]pyrimidin-4-one] was 0.1 nM; that for `COc1nc(-c2cccc(-c3cccc(-c4ccn5c(=O)c(CN(C)CCO)cnc5c4)c3Cl)c2Cl)ccc1CNC[C@@H]1CCC(=O)N1` [Example 281, (S)-8-(2,2′-Dichloro-3′-(6-methoxy-5-((((5-oxopyrrolidin-2-yl)methyl)-amino)-methyl)pyridin-2-yl)-[1,1′-biphenyl]-3-yl)-3-(((2-hydroxyethyl)(methyl)amino)methyl)-4H-pyrido[1,2-a]-pyrimidin-4-one] was 0.1 nM.

`COc1nc(-c2cccc(-c3cccc(-c4ccn5ncc(CNC[C@@H]6CCC(=O)N6)c5n4)c3Cl)c2Cl)ccc1CNC[C@@H]1CCC(=O)N1` [Example 282, (S)-5-((((6-(2,2′-Dichloro-3′-(3-(((((S)-5-oxopyrrolidin-2-yl)-methyl)amino)-methyl)-pyrazolo[1,5-a]pyrimidin-5-yl)-[1,1′-biphenyl]-3-yl)-2-methoxypyridin-3-yl)methyl)-amino)methyl)-pyrrolidin-2-one]: the midpoint of inhibition, the IC50, lay at 8.7 nM.
